Test results as given in patent publication US11071731B2, “Allosteric modulators of the mu opioid receptor” (Chiromics, LLC, priority 2017, dated 2021).

Key:
mu opioid receptor (MOR) [1] = target: T1, mu opioid receptor (MOR) (Homo sapiens, UniProt P35372); assay: Hit Hunter cAMP signaling assay (adenylyl cyclase inhibition), PAM mode with EC20 endomorphin-1; assay type: cell-based; settings: for cAMP Max. Resp.: maximal response for adenylyl cyclase inhibition
mu opioid receptor (MOR) [2] = target: T1, mu opioid receptor (MOR); assay: PathHunter β-arrestin recruitment assay, PAM mode with EC20 endomorphin-1; assay type: cell-based; settings: for β-arr Max. Resp.: maximal response for β-arrestin recruitment
Method in brief: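 β-Arrestin recruitment to the receptor was tracked by chemiluminescent β-galactosidase activity from complementing fragments (ED on receptor, EA on β-arrestin). Per-compound outputs were EC50 and percent maximal response.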

[3] = adenylyl cyclase inhibition, read-out: cAMP EC50
[4] = β-arrestin recruitment, read-out: β-arr. EC50
[5] = cAMP EC50, adenylyl cyclase inhibition

T1 sequence (P35372 whole entry): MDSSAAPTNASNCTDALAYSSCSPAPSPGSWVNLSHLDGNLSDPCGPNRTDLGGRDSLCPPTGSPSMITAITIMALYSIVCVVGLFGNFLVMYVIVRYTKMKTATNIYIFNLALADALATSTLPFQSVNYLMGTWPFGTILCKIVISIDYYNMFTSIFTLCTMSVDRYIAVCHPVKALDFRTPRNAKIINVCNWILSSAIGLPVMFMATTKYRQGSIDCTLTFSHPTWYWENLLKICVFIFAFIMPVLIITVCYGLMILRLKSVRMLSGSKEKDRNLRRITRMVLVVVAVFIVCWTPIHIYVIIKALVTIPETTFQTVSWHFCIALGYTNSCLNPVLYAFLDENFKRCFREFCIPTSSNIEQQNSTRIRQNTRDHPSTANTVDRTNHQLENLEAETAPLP

| SMILES | EC50 (mu opioid receptor (MOR) [1]; [3]) [nM] | cAMP Max. Resp. (mu opioid receptor (MOR) [1]) | β-arr Max. Resp. (mu opioid receptor (MOR) [2]) | EC50 (mu opioid receptor (MOR) [2]; [4]) [nM] | EC50 (mu opioid receptor (MOR) [1]; [5]) [nM] | EC50 (mu opioid receptor (MOR) [1]) [nM] | EC50 (mu opioid receptor (MOR) [2]; β-arr. EC50, β-arrestin recruitment) [nM] |
| --- | --- | --- | --- | --- | --- | --- | --- |
| CCC1CCCN(c2nc(Cl)ncc2F)C1c1ccc(OC)c(Br)c1 (stereo not shown) [compound 248] | > 2100 | E (E represents a maximal response of 40-60%) | F (F represents a maximal response of > 60%) | > 2100 | – | – | – |
| COc1ccc(C2C(C)CCCN2c2nc(Cl)ncc2F)cc1Br (stereo not shown) [compound 249] | > 2100 | E (E represents a maximal response of 40-60%) | F (F represents a maximal response of > 60%) | > 2100 | – | – | – |
| CCC1CCCN(c2nc(Cl)ncc2F)C1c1ccc(OC)c(Br)c1 (stereo not shown) [compound 251] | > 2100 | D (D represents a maximal response of < 40%) | F (F represents a maximal response of > 60%) | > 2100 | – | – | – |
| Fc1cc(C2CCCCCN2c2nc(Cl)ncc2F)cc(C(F)(F)F)c1 (stereo not shown) [compound 252] | > 2100 | E (E represents a maximal response of 40-60%) | F (F represents a maximal response of > 60%) | > 2100 | – | – | – |
| Fc1cnc(Cl)nc1N1CCCCCC1c1cccc(C(F)(F)F)n1 (stereo not shown) [compound 253] | > 2100 | E (E represents a maximal response of 40-60%) | F (F represents a maximal response of > 60%) | > 2100 | – | – | – |
| CCN(CC)c1ncc(F)c(N2CCCCC2c2cccc(C(F)(F)F)c2)n1 (stereo not shown) [compound 254] | – | E (E represents a maximal response of 40-60%) | D (D represents a maximal response of < 40%) | > 2100 | > 2100 | – | – |
| Fc1cnc(N2CCOCC2)nc1N1CCCCC1c1cccc(C(F)(F)F)c1 (stereo not shown) [compound 255] | – | F (F represents a maximal response of > 60%) | D (D represents a maximal response of < 40%) | > 2100 | > 2100 | – | – |
| OC1CN(c2ncc(F)c(N3CCCCC3c3cccc(C(F)(F)F)c3)n2)C1 (stereo not shown) [compound 256] | – | D (D represents a maximal response of < 40%) | D (D represents a maximal response of < 40%) | > 2100 | > 2100 | – | – |
| FC(F)(F)c1cccc(C2CCCCN2c2ccnc(Cl)n2)c1 (stereo not shown) [compound 257] | – | D (D represents a maximal response of < 40%) | F (F represents a maximal response of > 60%) | > 2100 | > 2100 | – | – |
| FC(F)(F)c1cccc(C2CCCCN2c2nccc(Cl)n2)c1 (stereo not shown) [compound 258] | – | F (F represents a maximal response of > 60%) | E (E represents a maximal response of 40-60%) | > 2100 | > 2100 | – | – |
| Fc1cccc(C2CCCCN2c2ccnc(Cl)n2)n1 (stereo not shown) [compound 259] | – | D (D represents a maximal response of < 40%) | D (D represents a maximal response of < 40%) | > 2100 | > 2100 | – | – |
| Fc1cccc(C2CCCCN2c2nccc(Cl)n2)n1 (stereo not shown) [compound 260] | – | D (D represents a maximal response of < 40%) | D (D represents a maximal response of < 40%) | > 2100 | > 2100 | – | – |
| Fc1cnc(Cl)cc1N1CCCCC1c1cccc(C(F)(F)F)c1 (stereo not shown) [compound 261] | – | D (D represents a maximal response of < 40%) | F (F represents a maximal response of > 60%) | 700 to 2100 | > 2100 | – | – |
| Fc1cccc(C2CCCCN2c2cc(Cl)ncc2F)n1 (stereo not shown) [compound 262] | – | D (D represents a maximal response of < 40%) | E (E represents a maximal response of 40-60%) | > 2100 | > 2100 | – | – |
| Fc1ccc(Cl)nc1N1CCCCC1c1cccc(C(F)(F)F)c1 (stereo not shown) [compound 263] | – | D (D represents a maximal response of < 40%) | F (F represents a maximal response of > 60%) | 700 to 2100 | 700 to 2100 | – | – |
| Fc1cccc(C2CCCCN2c2nc(Cl)ccc2F)n1 (stereo not shown) [compound 264] | – | F (F represents a maximal response of > 60%) | E (E represents a maximal response of 40-60%) | > 2100 | 700 to 2100 | – | – |
| Cc1cnc(Cl)nc1N1CCCCC1c1cccc(C(F)(F)F)c1 (stereo not shown) [compound 265] | – | E (E represents a maximal response of 40-60%) | F (F represents a maximal response of > 60%) | > 2100 | > 2100 | – | – |
| Cc1cnc(N2CCCCC2c2cccc(C(F)(F)F)c2)nc1Cl (stereo not shown) [compound 266] | – | D (D represents a maximal response of < 40%) | E (E represents a maximal response of 40-60%) | > 2100 | > 2100 | – | – |
| Cc1cnc(Cl)nc1N1CCCCC1c1cccc(F)n1 (stereo not shown) [compound 267] | – | E (E represents a maximal response of 40-60%) | D (D represents a maximal response of < 40%) | > 2100 | > 2100 | – | – |

| SMILES | EC50 (mu opioid receptor (MOR) [1]; [3]) [nM] | cAMP Max. Resp. (mu opioid receptor (MOR) [1]) | β-arr Max. Resp. (mu opioid receptor (MOR) [2]) | EC50 (mu opioid receptor (MOR) [2]; [4]) [nM] | EC50 (mu opioid receptor (MOR) [1]; [5]) [nM] | EC50 (mu opioid receptor (MOR) [1]) [nM] | EC50 (mu opioid receptor (MOR) [2]; β-arr. EC50, β-arrestin recruitment) [nM] |
| --- | --- | --- | --- | --- | --- | --- | --- |
| Cc1cnc(N2CCCCC2c2cccc(F)n2)nc1Cl (stereo not shown) [compound 268] | – | F (F represents a maximal response of > 60%) | D (D represents a maximal response of < 40%) | > 2100 | > 2100 | – | – |
| Cc1ncc(F)c(N2CCCCC2c2cccc(C(F)(F)F)c2)n1 (stereo not shown) [compound 269] | – | D (D represents a maximal response of < 40%) | F (F represents a maximal response of > 60%) | > 2100 | > 2100 | – | – |
| Cc1ncc(F)c(N2CCCCC2c2cccc(F)n2)n1 (stereo not shown) [compound 270] | – | D (D represents a maximal response of < 40%) | D (D represents a maximal response of < 40%) | > 2100 | > 2100 | – | – |
| COc1ncc(F)c(N2CCCCC2c2cccc(C(F)(F)F)c2)n1 (stereo not shown) [compound 271] | – | E (E represents a maximal response of 40-60%) | F (F represents a maximal response of > 60%) | > 2100 | 700 to 2100 | – | – |
| COc1ncc(F)c(N2CCCCC2c2cccc(F)n2)n1 (stereo not shown) [compound 272] | – | F (F represents a maximal response of > 60%) | D (D represents a maximal response of < 40%) | > 2100 | > 2100 | – | – |
| Fc1cnc(Cl)nc1N1CCCCC1c1cncc(C(F)(F)F)n1 (stereo not shown) [compound 274] | – | D (D represents a maximal response of < 40%) | F (F represents a maximal response of > 60%) | > 2100 | 700 to 2100 | – | – |
| COc1cc(C2CCCCN2c2nc(Cl)ncc2F)ccn1 (stereo not shown) [compound 275] | – | D (D represents a maximal response of < 40%) | D (D represents a maximal response of < 40%) | > 2100 | > 2100 | – | – |
| Fc1cnc(Cl)nc1N1CCCCC1c1cccc(Cl)n1 (stereo not shown) [compound 276] | – | D (D represents a maximal response of < 40%) | E (E represents a maximal response of 40-60%) | – | – | 700 to 2100 | > 2100 |
| Fc1cnc(Cl)nc1N1CCCCC1c1cncc(Cl)n1 (stereo not shown) [compound 277] | – | D (D represents a maximal response of < 40%) | E (E represents a maximal response of 40-60%) | > 2100 | > 2100 | – | – |
| Fc1cnc(Cl)nc1N1CCCCC1c1cc(C(F)(F)F)ccn1 (stereo not shown) [compound 278] | – | F (F represents a maximal response of > 60%) | F (F represents a maximal response of > 60%) | > 2100 | 700 to 2100 | – | – |
| O=c1[nH]c2ccc(C3CCCCN3c3nc(Cl)ncc3F)cc2o1 (stereo not shown) [compound 279] | – | F (F represents a maximal response of > 60%) | D (D represents a maximal response of < 40%) | > 2100 | > 2100 | – | – |
| Fc1cnc(Cl)nc1N1CCCCC1c1cncc(Cl)c1 (stereo not shown) [compound 280] | – | E (E represents a maximal response of 40-60%) | F (F represents a maximal response of > 60%) | – | – | > 2100 | – |
| Cc1ccc(C2CCCCN2c2nc(Cl)ncc2F)cc1Br (stereo not shown) [compound 281] | – | D (D represents a maximal response of < 40%) | F (F represents a maximal response of > 60%) | 700 to 2100 | < 700 | – | – |
| Fc1cnc(Cl)nc1N1CCCCC1c1ccnc2ccccc12 (stereo not shown) [compound 283] | – | F (F represents a maximal response of > 60%) | D (D represents a maximal response of < 40%) | > 2100 | > 2100 | – | – |
| Fc1cnc(Cl)nc1N1CCCCC1c1cccc2nccn12 (stereo not shown) [compound 284] | – | E (E represents a maximal response of 40-60%) | D (D represents a maximal response of < 40%) | > 2100 | > 2100 | – | – |
| Fc1cnc(Cl)nc1N1CCCCC1c1cccc(Cl)c1 (stereo not shown) [compound 285] | – | E (E represents a maximal response of 40-60%) | F (F represents a maximal response of > 60%) | 700 to 2100 | > 2100 | – | – |
| Fc1cnc(Cl)nc1N1CCCCC1c1cccc2ccncc12 (stereo not shown) [compound 286] | – | D (D represents a maximal response of < 40%) | D (D represents a maximal response of < 40%) | > 2100 | > 2100 | – | – |
| Fc1cnc(Cl)nc1N1CCCCC1c1ccc(Br)c(C(F)(F)F)c1 (stereo not shown) [compound 287] | – | D (D represents a maximal response of < 40%) | F (F represents a maximal response of > 60%) | 700 to 2100 | < 700 | – | – |
| COc1cc(C2CCCCN2c2nc(Cl)ncc2F)ccc1Br (stereo not shown) [compound 288] | – | E (E represents a maximal response of 40-60%) | F (F represents a maximal response of > 60%) | > 2100 | > 2100 | – | – |
